Experimental findings from US20060293317A1, “Use of non-steroidal progesterone receptor modulators” (priority 2005, published 2006) are described below.

The target of the experiment is T1, PR-B progesterone receptor (Homo sapiens, UniProt P06401).
T1 sequence (P06401 1-933): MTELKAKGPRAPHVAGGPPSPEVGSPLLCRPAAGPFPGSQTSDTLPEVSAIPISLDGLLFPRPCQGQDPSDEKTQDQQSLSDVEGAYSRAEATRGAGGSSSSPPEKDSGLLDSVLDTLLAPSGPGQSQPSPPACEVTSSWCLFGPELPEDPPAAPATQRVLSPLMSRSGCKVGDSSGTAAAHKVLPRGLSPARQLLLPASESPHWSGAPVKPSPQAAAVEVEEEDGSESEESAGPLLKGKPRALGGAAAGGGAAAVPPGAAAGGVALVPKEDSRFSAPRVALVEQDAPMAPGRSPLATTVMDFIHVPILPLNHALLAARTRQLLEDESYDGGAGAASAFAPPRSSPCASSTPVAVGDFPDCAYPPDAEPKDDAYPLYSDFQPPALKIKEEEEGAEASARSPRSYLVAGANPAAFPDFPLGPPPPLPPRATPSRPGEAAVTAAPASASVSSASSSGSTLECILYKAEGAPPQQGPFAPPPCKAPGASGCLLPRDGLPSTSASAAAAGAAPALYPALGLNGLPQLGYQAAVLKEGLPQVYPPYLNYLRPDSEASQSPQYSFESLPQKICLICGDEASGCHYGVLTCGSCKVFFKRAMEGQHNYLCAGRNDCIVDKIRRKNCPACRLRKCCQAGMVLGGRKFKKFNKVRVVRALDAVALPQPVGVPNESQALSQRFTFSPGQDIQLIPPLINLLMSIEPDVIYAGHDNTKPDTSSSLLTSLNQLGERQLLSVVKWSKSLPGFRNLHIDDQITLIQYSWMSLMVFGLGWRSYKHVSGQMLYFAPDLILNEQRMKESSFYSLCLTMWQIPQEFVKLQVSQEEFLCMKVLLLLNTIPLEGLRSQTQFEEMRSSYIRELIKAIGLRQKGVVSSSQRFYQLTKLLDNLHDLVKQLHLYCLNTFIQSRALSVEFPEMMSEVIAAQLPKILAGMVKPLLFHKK
In words: Antagonism at the PR-B progesterone receptor (transactivation assay). The class given is cell-based. Here is the method: Antagonism at the PR-B Progesterone Receptor
The transactivation assay is carried out as described in WO 02/054064.

`Cc1noc(=O)c2ccc(NC(=O)C(O)(Cc3ccccc3)CC(C)(C)c3ccccc3)cc12` (centres unmarked) [compound 88]: the “Antagonistic activity Efficacy” value (transactivation assay as in WO 02/054064) came out at 100%. For the setting “transactivation assay as in WO 02/054064, read-out: Antagonistic activity IC50”, the IC50 is 0.3 nM.
